According to paper PMC12838644, “Dihydrotanshinone as a Natural Product-Based CYP17A1 Lyase Inhibitor for Hyperandrogenic Disorders” (Biomolecules, 2026):

What was measured:
[1] = tested on: NCI-H295R, HEK-293T and RWPE-1 cells; test: alamarBlue cytotoxicity assay, across all three cell lines; type: cell-based; details: Homo sapiens, read-out: half-maximal inhibitory concentrations (IC50), range across all three cell lines
Description: Human adrenocortical NCI-H295R cells (ATCC: CRL-2128) were purchased from ATCC and cultured in DMEM/Ham’s F-12 medium with L-glutamine and 15 mM HEPES (Thermo Fisher Scientific, Waltham, MA, USA), supplemented with 5% NU-Serum (Becton Dickinson, Franklin Lakes, NJ, USA), 0.1% insulin, transferrin, selenium (100 U/mL; Thermo Fisher Scientific, Waltham, MA, USA), and 1% penicillin (100 U/mL; Thermo Fisher Scientific, Waltham, MA, USA), and streptomycin (100 μg/mL; GIBCO, New York, NY, USA). RWPE-1 cells (ATCC: CRL-36O7) were cultured in keratinocyte serum-free media (K-SFM) supplemented with 0.05 mg/mL bovine pituitary extract and 5 ng/mL epidermal growth factor, and 1% penicillin (100 U/mL; Thermo Fisher Scientific, Waltham, MA, USA), and streptomycin (100 μg/mL; GIBCO). […] Additionally, key functional and morphological characteristics were assessed to verify their alignment with previously reported profiles.
The alamarBlue® assay (Thermo Fisher Scientific, Waltham, MA USA) was conducted as previously described. […] Cell viability was measured using the alamarBlue® assay. […] The plates were incubated in the dark at 37 °C with 5% CO2 for 4 h, and fluorescence was measured at an excitation wavelength of 540 nm and an emission wavelength of 590 nm. Cell viability was calculated relative to the control sample treated with DMSO. […]

CYP21A2 = test: Western blot of CYP21A2 protein expression in treated HEK-293T cells; type: cell-based, human; details: normalized to β-actin, 4 h treatment, DMSO control 1.07
Description: CYP21A2 expression was determined from total protein extracts. Cells were incubated with the previously described lysis buffer for 1 h and centrifuged at 10,000× g for 10 min at 4 °C [54]. The supernatant was collected, and total protein was determined using the Pierce Coomassie Plus (Bradford) assay kit (Thermo Fisher Scientific, Hanover Park, IL, USA). 50 μg of total protein was loaded onto an SDS-PAGE gel (GenScript, Piscataway, NJ, USA) and then transferred to a PVDF membrane as previously described. Two primary antibodies were used: a mouse DKY-Tag monoclonal antibody (GenScript, Catalog No. A00187) at a dilution of 1:1000 and a mouse anti-β-actin monoclonal antibody (Sigma Aldrich, St. Louis, MO, USA, Catalog No. SAB3500350) at a dilution of 1:1500. The secondary antibody, IRDye 800CW-conjugated donkey anti-mouse antibody (LI-COR, Lincoln, NE, USA, Catalog No. 926-32212), was used at a dilution of 1:15,000. Fluorescence signals were detected using an Odyssey SA infrared imaging system (LI-COR Bioscience Inc., Lincoln, NE, USA).

Row | Compound | IC50 [1] [nM] | CYP21A2 protein levels, normalized densitometry values (CYP21A2)
1 | Cc1cccc2c3c(ccc12)C1=C(C(=O)C3=O)[C@@H](C)CO1 [DT, dihydrotanshinone I] | 950 to 1400 | 1.15
2 | Cc1coc2c1C(=O)C(=O)c1c-2ccc2c1CCCC2(C)C [TAII, tanshinone IIA] | – | 1.30
